Data as given in the NIST ThermoML archive (doi:10.1021/je040008e).
Numbers after ± are expanded uncertainties.

Legend:
[1] = xn = mol fraction of the nth substance listed; conditions: 308.15 K, 101.33 kPa, Liquid; for speed of sound: Linear variable-path acoustic interferometer
[2] = 101.33 kPa, Liquid; for speed of sound: Linear variable-path acoustic interferometer

Q: With `CC(=O)c1ccc(Cl)cc1` [4'-chloroacetophenone] + CNC(C)=O as the compound, how does the speed of sound ([1]; x1 = 0.0644) read?
A: Its speed of sound is 1363 ± 4.4 m/s.

Q: And the speed of sound ([1]; x1 = 0.1311)?
A: Its speed of sound is 1366 ± 4.5 m/s.

Q: And the speed of sound ([1]; x1 = 0.2036)?
A: The speed of sound was 1369.3 ± 4.5 m/s.

Q: And the speed of sound ([1]; x1 = 0.2825)?
A: Its speed of sound is 1372.4 ± 4.5 m/s.

Q: And the speed of sound ([1]; x1 = 0.3696)?
A: Its speed of sound is 1375.8 ± 4.5 m/s.

Q: What about the speed of sound ([1]; x1 = 0.4664) of the same compound?
A: The speed of sound was 1379.5 ± 4.5 m/s.

Q: What about the speed of sound ([1]; x1 = 0.5774) of the same compound?
A: Its speed of sound is 1382.6 ± 4.5 m/s.

Q: And the speed of sound ([1]; x1 = 0.7003)?
A: The speed of sound was 1385.1 ± 4.5 m/s.

Q: And the speed of sound ([1]; x1 = 0.8405)?
A: Its speed of sound is 1387.6 ± 4.5 m/s.

Q: And the speed of sound ([1]; x1 = 1)?
A: Its speed of sound is 1390 ± 4.5 m/s.

Q: What about the excess molar volume ([1]; x1 = 0.0644) of the same compound?
A: The excess molar volume was -2.11e-07 ± 2.1e-08 m3/mol.

Q: What about the excess molar volume ([1]; x1 = 0.1311) of the same compound?
A: Its excess molar volume is -3.3e-07 ± 2.2e-08 m3/mol.

Q: What about the excess molar volume ([1]; x1 = 0.2036) of the same compound?
A: Its excess molar volume is -4.53e-07 ± 2.3e-08 m3/mol.

Q: What about the excess molar volume ([1]; x1 = 0.2825) of the same compound?
A: The excess molar volume was -5.363e-07 ± 2.3e-08 m3/mol.

Q: And the excess molar volume ([1]; x1 = 0.3696)?
A: The excess molar volume was -5.889e-07 ± 2.3e-08 m3/mol.

Q: And the excess molar volume ([1]; x1 = 0.4664)?
A: The excess molar volume was -5.934e-07 ± 2.4e-08 m3/mol.

Q: What about the excess molar volume ([1]; x1 = 0.5774) of the same compound?
A: The excess molar volume was -5.393e-07 ± 2.3e-08 m3/mol.

Q: What about the excess molar volume ([1]; x1 = 0.7003) of the same compound?
A: The excess molar volume was -4.298e-07 ± 2.3e-08 m3/mol.

Q: What about the excess molar volume ([1]; x1 = 0.8405) of the same compound?
A: Its excess molar volume is -2.52e-07 ± 2.2e-08 m3/mol.

Q: What about the excess molar volume ([1]; x1 = 1) of the same compound?
A: The excess molar volume was 0 ± 2e-08 m3/mol.

Q: For `CC(=O)c1ccccc1` [acetophenone], which mass density ([2]; 298.15 K) is on record?
A: The mass density was 1023.1 ± 1.4 kg/m3.

Q: And the speed of sound ([2]; 308.15 K)?
A: Its speed of sound is 1445 ± 4.7 m/s.

Q: Which speed of sound ([1]; x2 = 0) does the source give for `CNC(C)=O` [N-methylacetamide] + CCC(=O)c1ccccc1 here?
A: The speed of sound was 1360 ± 4.4 m/s.

Q: And the excess molar volume ([1]; x2 = 0)?
A: The excess molar volume was 0 ± 2e-08 m3/mol.

Q: What does the source list for `CCC(=O)c1ccccc1` [ethyl phenyl ketone]?
A: mass density ([2]; 298.15 K): 1009.2 ± 1.4 kg/m3; speed of sound ([2]; 308.15 K): 1432.1 ± 4.6 m/s

Q: Which mass density ([2]; 308.15 K) does the source give for `CC(=O)c1ccc(C)cc1` [4'-methylacetophenone] here?
A: Its mass density is 996.3 ± 1.5 kg/m3.

Q: And the speed of sound ([2]; 308.15 K)?
A: The speed of sound was 1437.9 ± 4.7 m/s.

Q: What does the source list for `CNC(C)=O` [N-methylacetamide] + CC(=O)c1ccc(C)cc1?
A: speed of sound ([1]; x2 = 0): 1360 ± 4.4 m/s; excess molar volume ([1]; x2 = 0): 0 ± 2e-08 m3/mol

Q: With `CNC(C)=O` [N-methylacetamide] + CC(=O)c1ccc(Cl)cc1 as the compound, how does the speed of sound ([1]; x2 = 0) read?
A: The speed of sound was 1360 ± 4.4 m/s.

Q: And the excess molar volume ([1]; x2 = 0)?
A: Its excess molar volume is 0 ± 2e-08 m3/mol.

Q: For `CC(=O)c1ccc(C)cc1` [4'-methylacetophenone] + CNC(C)=O, which speed of sound ([1]; x1 = 0.0617) is on record?
A: The speed of sound was 1368.9 ± 4.5 m/s.

Q: What about the speed of sound ([1]; x1 = 0.1321) of the same compound?
A: Its speed of sound is 1377.7 ± 4.5 m/s.

Q: What about the speed of sound ([1]; x1 = 0.2004) of the same compound?
A: Its speed of sound is 1385.8 ± 4.5 m/s.

Q: What about the speed of sound ([1]; x1 = 0.2836) of the same compound?
A: The speed of sound was 1394.4 ± 4.5 m/s.

Q: What about the speed of sound ([1]; x1 = 0.3629) of the same compound?
A: The speed of sound was 1402.4 ± 4.6 m/s.

Q: What about the speed of sound ([1]; x1 = 0.4632) of the same compound?
A: Its speed of sound is 1411.5 ± 4.6 m/s.

Q: What about the speed of sound ([1]; x1 = 0.5582) of the same compound?
A: Its speed of sound is 1418.4 ± 4.6 m/s.

Q: And the speed of sound ([1]; x1 = 0.689)?
A: Its speed of sound is 1426.9 ± 4.6 m/s.

Q: And the speed of sound ([1]; x1 = 0.8305)?
A: The speed of sound was 1434 ± 4.7 m/s.

Q: And the speed of sound ([1]; x1 = 1)?
A: Its speed of sound is 1437.9 ± 4.7 m/s.

Q: And the excess molar volume ([1]; x1 = 0.0617)?
A: The excess molar volume was -1.519e-07 ± 2.1e-08 m3/mol.

Q: And the excess molar volume ([1]; x1 = 0.1321)?
A: Its excess molar volume is -2.517e-07 ± 2.2e-08 m3/mol.

Q: And the excess molar volume ([1]; x1 = 0.2004)?
A: The excess molar volume was -3.355e-07 ± 2.2e-08 m3/mol.

Q: What about the excess molar volume ([1]; x1 = 0.2836) of the same compound?
A: Its excess molar volume is -3.41e-07 ± 2.2e-08 m3/mol.

Q: What about the excess molar volume ([1]; x1 = 0.3629) of the same compound?
A: The excess molar volume was -3.52e-07 ± 2.2e-08 m3/mol.

Q: And the excess molar volume ([1]; x1 = 0.4632)?
A: Its excess molar volume is -3.458e-07 ± 2.2e-08 m3/mol.

Q: And the excess molar volume ([1]; x1 = 0.5582)?
A: The excess molar volume was -3.114e-07 ± 2.2e-08 m3/mol.

Q: And the excess molar volume ([1]; x1 = 0.689)?
A: The excess molar volume was -2.508e-07 ± 2.2e-08 m3/mol.

Q: What about the excess molar volume ([1]; x1 = 0.8305) of the same compound?
A: The excess molar volume was -1.92e-07 ± 2.1e-08 m3/mol.

Q: What about the excess molar volume ([1]; x1 = 1) of the same compound?
A: The excess molar volume was 0 ± 2e-08 m3/mol.

Q: What does the source list for `CNC(C)=O` [N-methylacetamide] + CC(=O)c1ccccc1?
A: speed of sound ([1]; x2 = 0): 1360 ± 4.4 m/s; speed of sound ([1]; x2 = 0.0686): 1368.7 ± 4.5 m/s; speed of sound ([1]; x2 = 0.138): 1376.6 ± 4.5 m/s; speed of sound ([1]; x2 = 0.2189): 1386.8 ± 4.5 m/s; speed of sound ([1]; x2 = 0.3143): 1398 ± 4.5 m/s; speed of sound ([1]; x2 = 0.3938): 1406.1 ± 4.6 m/s; speed of sound ([1]; x2 = 0.4912): 1415.3 ± 4.6 m/s; speed of sound ([1]; x2 = 0.6042): 1424.2 ± 4.6 m/s; speed of sound ([1]; x2 = 0.7223): 1431.4 ± 4.6 m/s; speed of sound ([1]; x2 = 0.8517): 1438 ± 4.7 m/s; excess molar volume ([1]; x2 = 0): 0 ± 2e-08 m3/mol; excess molar volume ([1]; x2 = 0.0686): -1.018e-07 ± 2.1e-08 m3/mol; excess molar volume ([1]; x2 = 0.138): -1.732e-07 ± 2.1e-08 m3/mol; excess molar volume ([1]; x2 = 0.2189): -2.437e-07 ± 2.2e-08 m3/mol; excess molar volume ([1]; x2 = 0.3143): -2.579e-07 ± 2.2e-08 m3/mol; excess molar volume ([1]; x2 = 0.3938): -2.476e-07 ± 2.2e-08 m3/mol; excess molar volume ([1]; x2 = 0.4912): -2.365e-07 ± 2.1e-08 m3/mol; excess molar volume ([1]; x2 = 0.6042): -1.695e-07 ± 2.1e-08 m3/mol; excess molar volume ([1]; x2 = 0.7223): -1.212e-07 ± 2.1e-08 m3/mol; excess molar volume ([1]; x2 = 0.8517): -5.09e-08 ± 2e-08 m3/mol

Q: Which results are given for `CC(=O)c1ccccc1` [acetophenone] + CNC(C)=O?
A: speed of sound ([1]; x1 = 1): 1445 ± 4.7 m/s; excess molar volume ([1]; x1 = 1): 0 ± 2e-08 m3/mol

Q: With `CNC(C)=O` [N-methylacetamide] as the compound, how does the mass density ([2]; 308.15 K) read?
A: Its mass density is 949.7 ± 1.4 kg/m3.

Q: And the speed of sound ([2]; 308.15 K)?
A: Its speed of sound is 1360 ± 4.4 m/s.

Q: Which results are given for `CC(=O)c1ccc(Cl)cc1` [4'-chloroacetophenone]?
A: mass density ([2]; 298.15 K): 1188.9 ± 1.7 kg/m3; speed of sound ([2]; 308.15 K): 1390 ± 4.5 m/s

Q: Which results are given for `CCC(=O)c1ccccc1` [ethyl phenyl ketone] + CNC(C)=O?
A: speed of sound ([1]; x1 = 0.06): 1368.3 ± 4.5 m/s; speed of sound ([1]; x1 = 0.1269): 1374.7 ± 4.5 m/s; speed of sound ([1]; x1 = 0.1862): 1380.6 ± 4.5 m/s; speed of sound ([1]; x1 = 0.2778): 1388.9 ± 4.5 m/s; speed of sound ([1]; x1 = 0.3654): 1397.8 ± 4.5 m/s; speed of sound ([1]; x1 = 0.4649): 1406.6 ± 4.6 m/s; speed of sound ([1]; x1 = 0.5709): 1413.5 ± 4.6 m/s; speed of sound ([1]; x1 = 0.6929): 1419.6 ± 4.6 m/s; speed of sound ([1]; x1 = 0.8315): 1426.6 ± 4.6 m/s; speed of sound ([1]; x1 = 1): 1432.1 ± 4.6 m/s; excess molar volume ([1]; x1 = 0.06): -2.003e-07 ± 2.1e-08 m3/mol; excess molar volume ([1]; x1 = 0.1269): -3.185e-07 ± 2.2e-08 m3/mol; excess molar volume ([1]; x1 = 0.1862): -3.356e-07 ± 2.2e-08 m3/mol; excess molar volume ([1]; x1 = 0.2778): -2.912e-07 ± 2.2e-08 m3/mol; excess molar volume ([1]; x1 = 0.3654): -2.106e-07 ± 2.1e-08 m3/mol; excess molar volume ([1]; x1 = 0.4649): -1.397e-07 ± 2.1e-08 m3/mol; excess molar volume ([1]; x1 = 0.5709): -8.14e-08 ± 2.1e-08 m3/mol; excess molar volume ([1]; x1 = 0.6929): -1.92e-08 ± 2e-08 m3/mol; excess molar volume ([1]; x1 = 0.8315): 3.82e-08 ± 2e-08 m3/mol; excess molar volume ([1]; x1 = 1): 0 ± 2e-08 m3/mol
